Test results published in patent US20170362590A1, “PHARMACEUTICAL COMPOSITIONS COMPRISING MICRORNA” (OREGON HEALTH & SCIENCE UNIVERSITY, priority 2016, published 2017).

Legend:
HUVEC [1] = test: β-Gal senescence assay; type: cell-based, human; settings: for senescence (β-galactosidase positive cells): 48 hours after transfection, relative to controls; for senescence phenotype in old HUVECs: high-passage HUVEC, β-galactosidase assay
Source text: After this time cells were washed whit cold PBS and then stain for β-galactosidase activity following manufacture protocol (Senescence Cells Histochemical Staining Kit, Sigma).

ERK = test: VEGF-dependent ERK phosphorylation (western blot); type: cell-based, human; settings: HUVECs treated with VEGF (10 min)
HUVEC [2] = test: 3-D angiogenic sprouting assay (fibrin bead); type: cell-based; settings: 3D-fibrinogen assay, co-culture with human aortic smooth muscle cells
Method: Early passage HUVECs were coated on cytodex-3 (GE Healthcare) beads at a density of 10 million cells/40 μl beads and incubated in suspension for 3-4 hours with gentle mixing every hour. They were plated on TC treated 6 well dishes overnight and resuspended in a 2 mg/ml fibrin gel with 200,000 human smooth muscle cells. The gel was allowed to polymerize and complete EGM-2 media was added. Sprouts were visualized from days 3-4 via confocal imaging after overnight incubation with FITC labeled Ulex europaeus lectin (Vector labs). Immunofluorescence imaging was performed on a Yokogawa CSU-W1 spinning disk confocal microscope with 20 0.45 Plan Fluor objective (Nikon).

[3] = test system: telomerase activity in HUVEC; test: Telomerase activity assay; type: cell-based, human; settings: 48 hours of ectopic expression
Method: […] Cells were lysed and processed according to the manufacturer's instructions (Quantitative Telomerase Detection Kit, Allied Biotech). The telomerase activity in the cell extract was determined through its ability to synthesize telomeric repeats onto an oligonucleotide substrate. The resulting products were subsequently amplified using the polymerase chain reaction (PCR).

[4] = test system: MRE11a, RAD50, and NBN mRNAs; test: miR-TRAP/RISC TRAP assay; type: cell-based; settings: 293 T cells, 24 hours
Method: 293 T cells were co-transfected with a plasmid coding for a flag-tagged dominant negative […] mutant (Clontech) along with a control mimic, miR-99b or miR-494 mimic according to kit instructions. Twenty-four hours later the RNA protein complexes were crosslinked and the RISC complex was immunoprecipitated using an anti-FLAG antibody and RNA was isolated for quantitative real-time PCR of target genes. The fold enrichment was calculated using pre and post IP controls as well as normalization to the control mimic pull-downs.

[5] = test system: VEGF-early gene signature; test: VEGF-early response gene expression; type: cell-based, human; settings: HUVEC, VEGF 50 ng/ml
Method: HUVECs were transfected for a total of 48 hours. At 24 hours cells were starved overnight and then treated 3 hours with VEGF (50 ng/ml). Graphs depict mean mRNA levels+SEM.
(§1) Total RNA and microRNA were isolated using miRVana microRNA isolation kit (Ambion). Reverse transcription was performed using TaqMan™ Advanced cDNA Synthesis Kit (Life Tech) according to the manufacture instructions. RT-PCR was performed using multiplexed TaqMan primers (Applied Biosystems). The relative quantification of gene expression was determined using the 2-DDCtmethod. Using this method, we obtained the fold changes in gene expression normalized to an internal control gene, GAPDH or U6 snRNA, respectively. A DNA damage array (LifeTech) was used for targeting analysis and a Human Cellular Senescence array (SA Biosciences) was used for senescence phenotype profiling.

MRE11a, RAD50 and NBN = test: Target validation in HUVEC (Western blot, qPCR); type: cell-based, human; settings: qPCR and immunofluorescence
Method: After treatment, cells were washed in phosphate-buffered saline (PBS) and prepared in RIPA lysis buffer (Sigma) supplemented with Complete Protease inhibitor cocktail (ROCHE) and Phosphatase inhibitors cocktail 2 and 3 (Sigma). Cells were harvested by scraping, and proteins were analyzed by Western blot. Equivalent amounts of protein were loaded on a 4-12% gradient SDS-polyacrylamide gel (BioRAD) and transferred for 30 min to a TransBlot turbo (BioRAD) nitrocellulose membrane. Membranes were blocked in 5% milk or 3% BSA and incubated with antibodies as indicated: Mre11a (Cell Signaling, 4847, 1:1000), RAD50 (Cell Signaling, 3427, 1:1000), NBS1 (Cell Signaling, 14956, 1:500), p-ATM (Cell Signaling, 4526, 1:500), H2AX (Abcam 11174, 1:500), p21 (Cell Signaling, 2947, 1:1000), P-Rb (Cell Signaling, 9301, 1:500), ERK1/2 (Cell Signaling, 9102, 1:1000), P-ERK1/2 (9101, 1:1000). β-actin (Sigma, A5316, 1:10,000 1 h RT) was used as housekeeping controls for the total levels of protein loaded. Membranes were washed in TBST and incubated with secondary antibodies from Licor Biosciences were used goat anti mouse 925-68020 (1:15,000) and goat anti rabbit 925-32211 (1:15,000). […]
Total RNA and microRNA were isolated using miRVana microRNA isolation kit (Ambion). […] The relative quantification of gene expression was determined using the 2-DDCtmethod. […]

CD44 = CD44 expression (Human Senescence gene array); type: cell-based; settings: HUVEC
Method: as §1
CD44 expression was analyzed by flow cytometry in HUVECs transfected with miR-494 for 48 hours. Cells were washed in PBS and tripsinazed. Cells were incubated in blocking solution (0.5% BSA/10% goat serum) for 30 min and 1 hour in primary antibody-PEcy7 conjugated (CD44, BD, 560533) prepared in blocking solution. Then cells were washed in PBS 3×. Cells were analyzed in a CANTOII equipment.

HUVEC [6] = test: HUVEC cell proliferation assay; type: cell-based, human; settings: for proliferation relative to controls: HUVEC, overexpression for 48 hours; for proliferation in old HUVECs: high-passage HUVEC
HUVEC [7] = test: HUVEC apoptosis; type: cell-based, human; settings: overexpression for 48 hours
[8] = test system: 3'-UTRs of MRE11a, RAD50, and NBN; test: 3'-UTR luciferase reporter assay in HEK-293T cells; type: cell-based, human; settings: 24 hours cotransfection
Method: To determine targets of miR-99b and miR-494, the RNAs were ectopically expressed in HUVECs. Targets were analyzed using a DNA damage array 24 hours after transfection. Three common targets for miR-99b and miR-494 were identified: MRE11a, RAD50 and NBN. These three proteins form the MRN complex which is involved in homologous repair and non-homologous end joining. mRNA targets of miR-494 and miR-99b were also assessed using a miR-TRAP assay. […] Finally, the 3′-UTRs of MRE11a, RAD50, and NBN were cloned into luciferase reporter vectors. The luciferase vectors were contrasfected with miR-494 and miR99b into HEK-293T cells for 24 hours.
MRE11a Luciferase-3-UTR plasmid was purchased from SwitchGear Genomics. RAD50 and NBN luciferase constructs were purchased as pmiR-REPORT vector (Ambion). Luciferase assay reagents were purchased from Switch Gear Genomics and Promega.
Cells were transfected at 50-60% confluence using standard forward transfection protocols using RNAimax reagent (Life Technologies) for miRs/siRNAs and Lipofectamine 2000 for plasmid or plasmid RNA dual transfections. Typically 50 nM RNA and […] plasmid DNA were used for transfections. Target protectors were transfected at a concentration of 50 nM or equivalent to the miR amounts.

p21 = test: Western blot of p21 in HUVEC; type: cell-based, human; settings: HUVEC expressing the miRNAs
Method: After treatment, cells were washed in phosphate-buffered saline (PBS) and prepared in RIPA lysis buffer (Sigma) supplemented with Complete Protease inhibitor cocktail (ROCHE) and Phosphatase inhibitors cocktail 2 and 3 (Sigma). Cells were harvested by scraping, and proteins were analyzed by Western blot. Equivalent amounts of protein were loaded on a 4-12% gradient SDS-polyacrylamide gel (BioRAD) and transferred for 30 min to a TransBlot turbo (BioRAD) nitrocellulose membrane. Membranes were blocked in 5% milk or 3% BSA and incubated with antibodies as indicated: Mre11a (Cell Signaling, 4847, 1:1000), RAD50 (Cell Signaling, 3427, 1:1000), NBS1 (Cell Signaling, 14956, 1:500), p-ATM (Cell Signaling, 4526, 1:500), H2AX (Abcam 11174, 1:500), p21 (Cell Signaling, 2947, 1:1000), P-Rb (Cell Signaling, 9301, 1:500), ERK1/2 (Cell Signaling, 9102, 1:1000), P-ERK1/2 (9101, 1:1000). β-actin (Sigma, A5316, 1:10,000 1 h RT) was used as housekeeping controls for the total levels of protein loaded. Membranes were washed in TBST and incubated with secondary antibodies from Licor Biosciences were used goat anti mouse 925-68020 (1:15,000) and goat anti rabbit 925-32211 (1:15,000). Blots were scanned on the Licor Odyssey scanner according to manufacturer's instructions.

murine 4T1 tumors = test: Orthotopic 4T1 tumor growth; type: in vivo; settings: implanted orthotopically in Balb/C mice
Source text: FIG. 5C is a graph of 4T1 tumor weights on day 21 after orthotopic mammary fat pad implantation of either control or miR-494-3p transfected tumors. N=8 mice per group and * indicates P<0.05.

[9] = test system: Matrigel plugs in nu/nu mice; test: Matrigel plug angiogenesis assay in vivo
Method: as §1
In some experiments, CD31a and Mre11a were visualized using immunofluorescence staining from OCT sections of tumor tissue. Slides were fixed with 4% PFA and stained overnight for CD31, Mre11a, or ASMC. Imaging was performed on a Nikon Spectral C1 confocal microscope (Nikon C1si with EZC1 acquisition software, Nikon Instruments) with Plan Apo 10×/0.45 air, Plan Apo 20×/0.75 air, and Plan Apo 60×/1.40 oil objective lenses (Nikon). Some immunofluorescence imaging was performed on a Yokogawa CSU-W1 spinning disk confocal microscope with 20 0.45 Plan Fluor objective (Nikon). All images were taken with a channel series. Images were analysed with Image J software for quantitation.
Immune-compromised 8-10 week old female nu/nu mice purchased from Jackson Labs. Growth factor reduced Matrigel (BD) with 400 ng ml 1 recombinant human bFGF (Millipore) was injected subcutaneously in nu/nu mice. Mice were injected i.v with 7C1-nanoparticles containing miR-494 or control miR (0.7 mg/kg, i.v) 3 or 4 days after plugs were implanted. At day 7 mice were harvest and lysed to obtained RNA or frozen in OCT for tissue staining.

breast cancer cell = test: Breast cancer cell proliferation in 2D and 3D assays; type: cell-based; settings: ectopic expression

In the case of N=C1NC(=O)/C(=C/c2ccc(O)cc2)S1 [Mirin-1, reference compound], the senescence (HUVEC [1]; HUVEC, 50 uM, after 24 hours) is reported as “induce senescence” and the “phosphorylation of ERK” value (ERK) is reported as “decreased ERK phosphorylation”.
With “miR-21-3p: Human miR-21-3p (SEQ ID NO: 2), used as miR mimic (sense CAACACCAGUCGAUGGGCUGU; listed as RNA, chemistry not given here; listed as Homo sapiens)” the sprouting angiogenesis (HUVEC [2]) was “inhibit sprouting angiogenesis”, the “senescence (β-galactosidase positive cells)” value (HUVEC [1]; HUVEC) was “lead to endothelial senescence” and the telomerase activity [3] was “impairing telomerase function”.
In the case of “miR-99b: Human miR-99b-5p (SEQ ID NO: 3), used as miR mimic (sense CACCCGUAGAACCGACCUUGCG; listed as RNA, chemistry not given here; listed as Homo sapiens)”, the “enrichment of target mRNAs in RISC pulldown relative to controls” value [4] is reported as “only MRE11a was enriched”, the specific-VEGF-early gene signature [5] is reported as “block a specific-VEGF-early gene signature” and the “protein expression of target mRNAs (MRE11a, RAD50, NBN)” value (MRE11a, RAD50 and NBN) is reported as “Blocking of protein expression”. The “expression of CD44, a marker of senescence” value (CD44) was “induced expression of CD44”, the sprouting angiogenesis (HUVEC [2]) was “inhibited sprouting angiogenesis” and the sprouting angiogenesis (HUVEC [2]; listed as miR-99b-5p) was “inhibit sprouting angiogenesis”. The “proliferation relative to controls” value (HUVEC [6]) was “less proliferation”, the “proliferation in old HUVECs” value (HUVEC [6]) was “without dramatically changing proliferation” and the “senescence (β-galactosidase positive cells)” value (HUVEC [1]; HUVEC) was “higher number of β-galactosidase positive cells”. The “senescence (β-galactosidase positive cells)” value (HUVEC [1]; HUVEC, listed as miR-99b-5p) was “lead to endothelial senescence”, the “senescence phenotype in old HUVECs” value (HUVEC [1]) was “restored a senescence phenotype” and the telomerase activity [3] was “Impaired telomerase activity”. The telomerase activity ([3]; listed as miR-99b-5p) was “impairing telomerase function”, the apoptosis (HUVEC [7]) was “no effect on apoptosis” and the “luciferase expression from 3'-UTR reporter vectors” value [8] was “Significantly less luciferase expression”. For the same compound, the “phosphorylation of ERK” value (ERK) was “lower rate of phosphorylation of ERK” and the “expression of cell cycle regulator p21” value (p21) was “greater expression”.
With “miR-494: Human miR-494-3p (SEQ ID NO: 1), used as miR mimic; in vivo delivered in 7C1 nanoparticles (sense UGAAACAUACACGGGAAACCUC; delivered in vivo in 7C1 nanoparticles, further chemistry not given here; listed as Homo sapiens)” the “enrichment of target mRNAs in RISC pulldown relative to controls” value [4] was “enrichment of all of MRE11a, RAD50, and NBN”, the “growth of 4T1 tumors” value (murine 4T1 tumors) was “decreased the growth” and the “protein expression of target mRNAs (MRE11a, RAD50, NBN)” value (MRE11a, RAD50 and NBN) was “Blocking of protein expression”. The “expression of CD44, a marker of senescence” value (CD44) was “induced expression of CD44”, the sprouting angiogenesis (HUVEC [2]) was “inhibited sprouting angiogenesis” and the sprouting angiogenesis (HUVEC [2]; listed as miR-494-3p) was “inhibit sprouting angiogenesis”. The “proliferation relative to controls” value (HUVEC [6]) was “less proliferation”, the “proliferation in old HUVECs” value (HUVEC [6]) was “without dramatically changing proliferation” and the “senescence (β-galactosidase positive cells)” value (HUVEC [1]; HUVEC) was “higher number of β-galactosidase positive cells”. For the same compound, the “senescence (β-galactosidase positive cells)” value (HUVEC [1]; HUVEC, listed as miR-494-3p) was “lead to endothelial senescence”, the “senescence phenotype in old HUVECs” value (HUVEC [1]) was “restored a senescence phenotype” and the telomerase activity [3] was “Impaired telomerase activity”. The telomerase activity ([3]; listed as miR-494-3p) was “impairing telomerase function”, the “Pecam1 mRNA expression in plugs relative to controls” value ([9]; Matrigel plugs, 7C1 nanoparticles) was “lower expression” and the “less CD31 staining relative to controls” value ([9]; Matrigel plugs, miR delivered with endothelial targeted nanoparticle 7C1, 0.7 mg/kg i.v.) was 50%. The “Mre11a mRNA expression in plugs” value ([9]; RNA isolated from Matrigel plugs, 7C1 nanoparticles) was “significantly less Mre11a expression”, the apoptosis (HUVEC [7]) was “no effect on apoptosis” and the “luciferase expression from 3'-UTR reporter vectors” value [8] was “Significantly less luciferase expression”. The “breast cancer cell proliferation” value (breast cancer cell) was “diminished breast cancer cell proliferation” and the “expression of cell cycle regulator p21” value (p21) was “greater expression”.
